System: Human leukemia HL-60 cells endogenously expressing BLT1 and BLT2 receptors
Assay: Ca2+ flux assay for LTB4 antagonist assay (HL-60 FLIPR)
Format: cell-based
Conditions: retinoic acid induced HL-60 cells, inhibition of LTB4-induced Ca2+ flux, 30 min preincubation; read-out: LTB4 antagonism (HL-60 FLIPR)
Method: Assay of Compounds for Inhibition of LTB4 Activity
Ca^2+Flux Assay for LTB4 Antagonist Assay
Human leukemia HL-60 cells endogenously expressing BLT1 and BLT2 receptors were cultured in RPMI-1640 medium supplemented with 20% fetal bovine serum, 2 mM glutamine, 100 U/ml penicillin and 100 ug/ml streptomycin.
Seventy two hours prior to experiment cells are counted using ViaCount reagent, centrifuged and resuspended at 2.0×10^5 cells/ml density with the complete growth media containing 1 μM Retinoic Acid (Sigma).
On a day of the experiment loading buffer (Calcium-3 Assay Kit, Molecular Devices) was prepared by dissolving the contents of one vial (Express Kit) into 500 ml Hank's Balanced Salt Solution containing 20 mM HEPES and 5 mM probenecid. Equal volume of the loading buffer was mixed with the replacement buffer (Hank's Balanced Salt Solution containing 20 mM HEPES, 0.05% BSA and 5 mM probenecid). Retinoic Acid induced HL-60 cells were counted using ViaCount reagent, centrifuged and resuspended at 2.0×10^6 cells/ml density with the loading buffer/replacement buffer, dispensed into 384 well black/clear microplates (Falcon) (25 μl/well) and placed in a 37° C./5% CO2 incubator for 1 hour.
During the incubation, test compounds were prepared at 6× the desired concentration in HBSS/20 mM HEPES/0.05% BSA as well as LTB4 (Biomol) was prepared at 2.2× concentration in HBSS/20 mM HEPES/0.5% BSA buffer.
After the incubation, both the cell and compound plates were brought to the FLIPR and 5 μl of the diluted compounds were transferred to the cell plates by the FLIPR. Plates were then incubated for 30 min at room temperature. After the ½ hour incubation, plates were returned to the FLIPR and 25 μl of 2.2×LTB4 was added to the cell plates. During the assay, fluorescence readings were taken simultaneously from all 384 wells of the cell plate every 1.5 seconds. Five readings were taken to establish a stable baseline, then 25 μl (LTB4) of sample was rapidly and simultaneously added to each well of the cell plate. The fluorescence was continuously monitored before, during and after sample addition for a total elapsed time of 100 seconds. Responses (increase in peak fluorescence) in each well following agonist addition was determined. The initial fluorescence reading from each well, prior to ligand stimulation, was used a zero baseline value for the data from that well. The responses are expressed as % inhibition of the neutral control (neural control: wells that received buffer plus DMSO but no test compound).

O=C(O)CCCOc1cccc(CCCCCCOc2cc(CO)cc(-c3ccc(Cl)cc3)c2)c1CCC(=O)O [Example 5, 4-{2-(2-Carboxy-ethyl)-3-[6-(4′-chloro-5-hydroxymethyl-biphenyl-3-yloxy)-hexyl]-phenoxy}-butyric acid]
IC50: 43.1 nM

COCc1cc(OCCCCCCc2cccc(OCCCC(=O)O)c2CCC(=O)O)cc(-c2cccc(F)c2)c1 [Example 14, 4-{2-(2-Carboxy-ethyl)-3-[6-(3′-fluoro-5-methoxymethyl-biphenyl-3-yloxy)-hexyl]-phenoxy}-butyric acid]
IC50: 1.47 nM

COCc1cc(OCCCCCCc2cccc(OCCCC(=O)O)c2CCC(=O)O)cc(-c2cccc(OC)c2)c1 [Example 19, 4-{2-(2-Carboxy-ethyl)-3-[6-(3′-methoxy-5-methoxymethyl-biphenyl-3-yloxy)-hexyl]-phenoxy}-butyric acid]
IC50: 9.44 nM

O=C(O)CCCOc1cccc(CCCCCCOc2cc(OCc3ccccc3)cc(-c3ccccc3)c2)c1CCC(=O)O [Example 58, 4-[3-[6-(5-Benzyloxy-biphenyl-3-yloxy)-hexyl]-2-(2-carboxy-ethyl)-phenoxy]-butyric acid]
IC50: 74.6 nM

CC(=O)c1cc(OCCCCCCc2cccc(OCCCC(=O)O)c2CCC(=O)O)cc(-c2ccc3c(c2)OCO3)c1 [Example 64, 4-[3-[6-(3-Acetyl-5-benzo[1,3]dioxol-5-yl-phenoxy)-hexyl]-2-(2-carboxy-ethyl)-phenoxy]-butyric acid]
IC50: 2.95 nM

COCc1cc(OCCCCCCc2cccc(OCCCC(=O)O)c2CCC(=O)O)cc(-c2ccc3c(c2)OCO3)c1 [Example 8, 4-[3-[6-(3-Benzo[1,3]dioxol-5-yl-5-methoxymethyl-phenoxy)-hexyl]-2-(2-carboxy-ethyl)-phenoxy]-butyric acid]
IC50: 0.14 nM

CN(C)Cc1cc(OCCCCCCc2cccc(OCCCC(=O)O)c2CCC(=O)O)cc(-c2ccccc2)c1 [Example 32, 4-{2-(2-Carboxy-ethyl)-3-[6-(5-dimethylaminomethyl-biphenyl-3-yloxy)-hexyl]-phenoxy}-butyric acid]
IC50: 0.1 nM

Cc1ccc(-c2cc(CN(C)C)cc(OCCCCCCc3cccc(OCCCC(=O)O)c3CCC(=O)O)c2)cc1F [Example 35, 4-{2-(2-Carboxy-ethyl)-3-[6-(5-dimethylaminomethyl-3′-fluoro-4′-methyl-biphenyl-3-yloxy)-hexyl]-phenoxy}-butyric acid]
IC50: 0.16 nM

CN(C)Cc1cc(OCCCCCCc2cccc(OCCCC(=O)O)c2CCC(=O)O)cc(-c2ccc(F)cc2)c1 [Example 33, 4-{2-(2-Carboxy-ethyl)-3-[6-(5-dimethylaminomethyl-4′-fluoro-biphenyl-3-yloxy)-hexyl]-phenoxy}-butyric acid]
IC50: 0.11 nM

O=C(O)CCCOc1cccc(CCCCCCOc2cc(OCC3CCCC3)cc(-c3ccsc3)c2)c1CCC(=O)O [Example 62, 4-[2-(2-Carboxy-ethyl)-3-[6-(3-cyclopentylmethoxy-5-thiophen-3-yl-phenoxy)-hexyl]-phenoxy]-butyric acid]
IC50: 7.98 nM

CC(=O)c1cc(OCCCCCCc2cccc(OCCCC(=O)O)c2CCC(=O)O)cc(-c2cccc(F)c2)c1 [Example 67, 4-[3-[6-(5-Acetyl-3′-fluoro-biphenyl-3-yloxy)-hexyl]-2-(2-carboxy-ethyl)-phenoxy]-butyric acid]
IC50: 5.1 nM

CC(=O)c1cc(OCCCCCCc2cccc(OCCCC(=O)O)c2CCC(=O)O)cc(-c2ccc3c(c2)OC(F)(F)O3)c1 [Example 69, 4-[3-{6-[3-Acetyl-5-(2,2-difluoro-benzo[1,3]dioxol-5-yl)-phenoxy]-hexyl}-2-(2-carboxy-ethyl)-phenoxy]-butyric acid]
IC50: 0.9 nM

COCc1cc(OCCCCCCc2cccc(OCCCC(=O)O)c2CCC(=O)O)cc(-c2cccc(Cl)c2)c1 [Example 18, 4-{2-(2-Carboxy-ethyl)-3-[6-(3′-chloro-5-methoxymethyl-biphenyl-3-yloxy)-hexyl]-phenoxy}-butyric acid]
IC50: 13.4 nM

O=C(O)CCCOc1cccc(CCCCCCOc2cc(OCc3ccccc3)cc(-c3cccc(F)c3)c2)c1CCC(=O)O [Example 59, 4-[3-[6-(5-Benzyloxy-3′-fluoro-biphenyl-3-yloxy)-hexyl]-2-(2-carboxy-ethyl)-phenoxy]-butyric acid]
IC50: 132 nM

N#CCc1cc(OCCCCCCc2cccc(OCCCC(=O)O)c2CCC(=O)O)cc(-c2ccsc2)c1 [Example 41, 4-{2-(2-Carboxy-ethyl)-3-[6-(3-cyanomethyl-5-thiophen-3-yl-phenoxy)-hexyl]-phenoxy}-butyric acid]
IC50: 15.2 nM

COCc1cc(OCCCCCCc2cccc(OCCCC(=O)O)c2CCC(=O)O)cc(-c2ccc(S(C)(=O)=O)cc2)c1 [Example 24, 4-[2-(2-Carboxy-ethyl)-3-[6-(4′-methanesulfonyl-5-methoxymethyl-biphenyl-3-yloxy)-hexyl]-phenoxy]-butyric acid]
IC50: 6.83 nM

O=C(O)CCCOc1cccc(CCCCCCOc2cc(CO)cc(-c3ccc4c(c3)OCCO4)c2)c1CCC(=O)O [Example 6, 4-(2-(2-Carboxy-ethyl)-3-{6-[3-(2,3-dihydro-benzo[1,4]dioxin-6-yl)-5-hydroxymethylphenoxy]-hexyl}-phenoxy)-butyric acid]
IC50: 7.39 nM

COCc1cc(OCCCCCCc2cccc(OCCCC(=O)O)c2CCC(=O)O)cc(-c2ccccc2F)c1 [Example 15, 4-{2-(2-Carboxy-ethyl)-3-[6-(2′-fluoro-5-methoxymethyl-biphenyl-3-yloxy)-hexyl]-phenoxy}-butyric acid]
IC50: 5.98 nM

COCc1cc(OCCCCCCc2cccc(OCCCC(=O)O)c2CCC(=O)O)cc(-c2ccc(F)cc2)c1 [Example 10, 4-{2-(2-Carboxy-ethyl)-3-[6-(4′-fluoro-5-methoxymethyl-biphenyl-3-yloxy)-hexyl]-phenoxy}-butyric acid]
IC50: 2.52 nM

CC(=O)c1cc(OCCCCCCc2cccc(OCCCC(=O)O)c2CCC(=O)O)cc(-c2ccsc2)c1 [Example 68, 4-[3-[6-(3-Acetyl-5-thiophen-3-yl-phenoxy)-hexyl]-2-(2-carboxy-ethyl)-phenoxy]-butyric acid]
IC50: 2 nM

CCOc1cc(OCCCCCCc2cccc(OCCCC(=O)O)c2CCC(=O)O)cc(-c2ccc(S(C)(=O)=O)cc2)c1 [Example 51, 4-[2-(2-Carboxy-ethyl)-3-[6-(5-ethoxy-4′-methanesulfonyl-biphenyl-3-yloxy)-hexyl]-phenoxy]-butyric acid]
IC50: 2.1 nM

CC(C)C(=O)c1cc(OCCCCCCc2cccc(OCCCC(=O)O)c2CCC(=O)O)cc(-c2ccc3c(c2)OCO3)c1 [Example 70, 4-[3-[6-(3-Benzo[1,3]dioxol-5-yl-5-isobutyryl-phenoxy)-hexyl]-2-(2-carboxy-ethyl)-phenoxy]-butyric acid]
IC50: 0.31 nM

CCOc1cc(OCCCCCCc2cccc(OCCCC(=O)O)c2CCC(=O)O)cc(-c2ccc3c(c2)OCCO3)c1 [Example 46, 4-[2-(2-Carboxy-ethyl)-3-{6-[3-(2,3-dihydro-benzo[1,4]dioxin-6-yl)-5-ethoxy-phenoxy]-hexyl}-phenoxy]-butyric acid]
IC50: 1.11 nM

CCOCc1cc(OCCCCCCc2cccc(OCCCC(=O)O)c2CCC(=O)O)cc(-c2ccc(F)cc2)c1 [Example 26, 4-{2-(2-Carboxy-ethyl)-3-[6-(5-ethoxymethyl-4′-fluoro-biphenyl-3-yloxy)-hexyl]-phenoxy}-butyric acid]
IC50: 11.9 nM

CCOc1cc(OCCCCCCc2cccc(OCCCC(=O)O)c2CCC(=O)O)cc(-c2cccc(F)c2)c1 [Example 47, 4-[2-(2-Carboxy-ethyl)-3-[6-(5-ethoxy-3′-fluoro-biphenyl-3-yloxy)-hexyl]-phenoxy]-butyric acid]
IC50: 2.32 nM

O=C(O)CCCOc1cccc(CCCCCCOc2cc(CO)cc(-c3ccccc3)c2)c1CCC(=O)O [Example 2, 4-{2-(2-Carboxy-ethyl)-3-[6-(5-hydroxymethyl-biphenyl-3-yloxy)-hexyl]-phenoxy}-butyric acid]
IC50: 24.7 nM

CCOc1cc(OCCCCCCc2cccc(OCCCC(=O)O)c2CCC(=O)O)cc(-c2ccc(F)cc2)c1 [Example 48]
IC50: 5.2 nM

CN(C)Cc1cc(OCCCCCCc2cccc(OCCCC(=O)O)c2CCC(=O)O)cc(-c2ccc3c(c2)OCO3)c1 [Example 30, 4-[3-[6-(3-Benzo[1,3]dioxol-5-yl-5-dimethylaminomethyl-phenoxy)-hexyl]-2-(2-carboxy-ethyl)-phenoxy]-butyric acid]
IC50: 0.1 nM

CCC(=O)c1cc(OCCCCCCc2cccc(OCCCC(=O)O)c2CCC(=O)O)cc(-c2ccc3c(c2)OCO3)c1 [Example 71, 4-[3-[6-(3-Benzo[1,3]dioxol-5-yl-5-propionyl-phenoxy)-hexyl]-2-(2-carboxy-ethyl)-phenoxy]-butyric acid]
IC50: 0.4 nM
